# Test results from patent US11771779B2, “Non-metallic magnetic resonance contrast agent” (HADASIT MEDICAL RESEARCH SERVICES & DEVELOPMENT LIMITED, priority 2018, dated 2023).
# Like-named read-outs stand apart in the source and are kept apart here.
# Tests used:
# [1] = previous results; cited from earlier work
# [2] = for T1 in the 1st min of hyperpolarization decay: 0-60 s; for T1 in the 2nd min of hyperpolarization decay: 65-120 s
# Source text: The dissolution process is detailed in the results section. […] Unless otherwise stated, the dissolved hyperpolarized solution was directly injected to a screw cup 10 mm NMR tube in a 5.8T NMR spectrometer via a PTFE line of about 2.4 m length with 3 s of He(g) chase. This line was wrapped with a heating tape (MRC, Holon, Israel) that enabled control over the temperature of the dissolution medium arriving to the NMR tube directly or to a collection tube in the fringe field of the spectrometer. ^15N-Nuclear Magnetic Resonance (NMR) spectra were continuously recorded immediately at the start of the dissolution process. […] In the experiments in body fluids and in experiments in which the hyperpolarized solution was first cooled to temperatures below room temperature, the dissolution media was first collected in a conical tube placed in the spectrometer's fringe field, and then was injected by syringe via a PEEK line to the NMR tube that was placed in the magnet.
# For heating this hyperpolarized solution prior to arrival to the NMR tube, the PTFE line leading the hyperpolarized solution out of the spin polarization device was wrapped with a heating tape connected to a temperature controller (MRC, Holon, Israel). In this way, hyperpolarized solutions at temperatures higher than 26° C. could be obtained. For cooling the hyperpolarized solution, the heating tape was not turned on and the dissolution medium was mixed with 0 to 4 mL of D2O at 2° C. in a collection tube placed in ice-water bath in the fringe field of the magnet, prior to injection.
# (§1) ^15N-NMR spectroscopy was performed in a 5.8T NMR spectrometer (RS2D, Mundolsheim, France), using a 10 mm broad-band NMR probe. The chemical shift scale of the spectra presented herein was calibrated based on a separate measurement of a [^15N2]urea standard sample (4M in H2O:D2O 80:20), carried out prior to hyperpolarized ^15N acquisitions, calibrating the [^15N2]urea signal to −306 ppm (relative to nitromethane). For enhancement factor calculation, the spectra were collected with a high flip angle of […] and a repetition time of 2 s. For T1 calculation, the spectra were acquired with a low flip angle of […] and a longer repetition time of 5-10 s.
# The temperature in the NMR tube was continuously monitored using an NMR compatible temperature probe (Osensa, Burnaby, BC, Canada).
# Determination of the T1 of the hyperpolarized sites was performed by curve fitting of the signal decay to the following equation: S(t)=S0·e^−t/T^1·(cos θ)^t/TR, in which TR, the time between excitations, and θ, the nutation angle of excitation, are known. Curve fitting was performed using Matlab (Mathworks, Natick, Mass., USA).
# [3] = Procedure: Then, 4.59 mL saline and 0.66 mL of D2O were added to this mixture. This solution was transferred to an NMR tube and scanned for 5 days. ^15N fully-relaxed spectra were recorded in blocks of about 4 h, whereas each block consisted of 720 averages with a 30 flip angle and a repetition time of 20 s.
# (§2) In the next step, this solution was divided into 2 samples, in the following manner: 3 mL of this solution were combined with 0.75 mL of human saliva and the combined solution was scanned for 5 days. The rest of the solution (without human saliva) was kept outside the magnet at room temperature.
# [4] = remark: listed apart in the source
# Procedure: The small amounts of hyperpolarized solution were added to the blood sample at 0, 3, 6, 7.25, and 9.17 min from arrival of the solution to the collection tube.
# [5] = system: breast tumor bearing mouse; conditions: 50 mM solution injected
# [6] = remark: listed apart in the source
# Procedure: as §1
# The absolute enhancement factor was determined by comparing the maximal SNR of the magnitude signal multiplied by the linewidth at half-height obtained under hyperpolarized conditions to the intensity of the thermal equilibrium signal of the same sample (analyzed in the same way). The spectrum at thermal equilibrium was acquired with the same nutation angle under fully relaxed conditions. The same spectral acquisition parameters (spectral width, number of points, receiver gain) and processing parameters (apodization, zero-filling) were used in the analysis of both spectra and the thermal equilibrium signal was corrected for the number of scans.
# in the same spectrometer used to record the hyperpolarized signal (5.8T), as described in the Methods section, and then projected to the expected enhancement factors at a common clinical scanner at 1.5T. Enhancement factors were calculated with reference to a spectrum of the same sample.
# [7] = remark: listed apart in the source
# Procedure: For this reason it was important to determine also the potential conversion to hyperpolarized [^15N]nitrite in human saliva.
# To test for the presence of [^15N]nitrite in this saline-saliva sample after the hyperpolarized state had decayed, the same sample was scanned at thermal equilibrium as well. The sample was scanned for 20 h, at room temperature.
# as §2
# [8] = Estimated ^15N T1 (FIG. 1); conditions: same order of magnitude as [^15N,D9]choline, called a speculation
# [9] = dogs; up to 120 mg/kg daily i.v. for 28 days; cited from earlier work
# [10] = rats; cited from earlier work
# [11] = mice; cited from earlier work
smiles,measurement,setting,value
"[2H]C([2H])([2H])[15N+](CCO)(C([2H])([2H])[2H])C([2H])([2H])[2H] [[^15N,D9]choline]",^15N T1,[1],about 6 min
"O=[15N+]([O-])[O-].[Na+] [[^15N]nitrate, sodium [^15N]nitrate]",dependence of T1 on temperature,[2]; 34-50° C.,does not change
same,increase of T1 in 2nd min versus 1st min,[2]; D2O,43%
same,T1 in the 1st min of hyperpolarization decay,[2]; D2O (n = 4),81 ± 20
same,T1 in the 2nd min of hyperpolarization decay,[2]; D2O (n = 4),116 ± 7
same,T1 in the 1st min of hyperpolarization decay,[2]; H2O (n = 2),99 ± 3
same,T1 in the 2nd min of hyperpolarization decay,[2]; H2O (n = 2),99 ± 5
same,signals in saline solution,"[3]; 22 mM with glucose 2.7 mM in saline, scanned 5 days, room temperature, FIG. 5A",Only the [^15N]nitrate signal appears in the spectrum
same,conversion to [^15N]nitrite in saline without saliva,"[3]; additional 5 days scan started after 14 days at room temperature, FIG. 5C",no conversion to [^15N]nitrite was observed
same,stable in saline solution,[3]; room temperature,at least 19 days
same,T1 in the 1st min of hyperpolarization decay,"[4]; Blood (n = 3), 0-60 s",27 ± 0.4
same,T1 in the 2nd min of hyperpolarization decay,"[4]; Blood (n = 3), 65-120 s",48 ± 1
same,increase of T1 in 2nd min versus 1st min,[4]; blood,78%
same,T1 in blood,"[4]; decay 1 of consecutive injections, error = 95% CI of fit",29 ± 2 s
same,T1 in blood,"[4]; decay 2 of consecutive injections, error = 95% CI of fit",30 ± 3 s
same,T1,"[4]; saline/whole human blood mixture (4 mL + 10 mL), 25 mM, 32-36° C., error = 95% CI of fit",29 ± 1 s
same,T1 upon mixing with whole blood,[4]; three measurements in two different blood samples,29 ± 1 s
same,mouse vascular system in ^15N MR image,[5],enhanced in the MR image
same,tumor tissue in ^15N MR image,[5],enhanced in the MR image
same,^15N polarization,"[6]; corresponds to enhancement factor 5,298",1%
same,enhancement factor extrapolated to clinical MRI field of 1.5T,"[6]; extrapolated from 5,298 at 5.8 T","about 20,500"
same,maximal enhancement factor,"[6]; first signal in solution, 5.8 T, 2.5 h polarization at 1.5-1.6 K","5,298"
same,percent polarization of the ^15N,"[6]; physiological saline, HP vs TE spectra FIG. 3C/3D, 30° nutation angle",0.6%
same,conversion rate of nitrate to nitrite,[7],about 3.8 mole per day per 0.75 mL of saliva
same,signals in saline-saliva sample,[7],about equal signals of [^15N]nitrate and [^15N]nitrite
same,T1 in the 1st min of hyperpolarization decay,"[7]; Saline + saliva (n = 1), 0-60 s",116
"[2H]C([2H])([2H])[15N+](CCOP(=O)([O-])OCC(O)CO)(C([2H])([2H])[2H])C([2H])([2H])[2H] (stereo not drawn) [[^15N,D9]GPC, [^15N,D9]glycerophosphocholine]",^15N T1 (estimated),[8],about 6 min
"C[N+](C)(C)CCOP(=O)([O-])OC[C@H](O)CO [GPC, glycerophosphocholine]",effects of daily intravenous injection,[9],only mild and reversible mood changes and no mortality
same,safe dose for an intravenous injection,[10],781 mg/kg
same,safe dose for an intravenous injection,[11],521 mg/kg
